Measurements taken from ChEMBL document CHEMBL5465560, “Selectivity Literature for EUbOPEN Chemogenomic Library” (2024).

What was measured:
[1] = biological target: Mitogen-activated protein kinase kinase kinase kinase 4 (Homo sapiens, UniProt O95819); assay: Selectivity interaction (KinomeScan (DiscoverX)) EUB0000229b MAP4K4; settings: at 10 µM
[2] = biological target: Serine/threonine-protein kinase SIK1 (Homo sapiens) (UniProt P57059); assay: Selectivity interaction (KinomeScan (DiscoverX)) EUB0000595a SIK1; settings: at 10 µM
Sequence of Serine/threonine-protein kinase SIK1 (Homo sapiens) (P57059 whole entry): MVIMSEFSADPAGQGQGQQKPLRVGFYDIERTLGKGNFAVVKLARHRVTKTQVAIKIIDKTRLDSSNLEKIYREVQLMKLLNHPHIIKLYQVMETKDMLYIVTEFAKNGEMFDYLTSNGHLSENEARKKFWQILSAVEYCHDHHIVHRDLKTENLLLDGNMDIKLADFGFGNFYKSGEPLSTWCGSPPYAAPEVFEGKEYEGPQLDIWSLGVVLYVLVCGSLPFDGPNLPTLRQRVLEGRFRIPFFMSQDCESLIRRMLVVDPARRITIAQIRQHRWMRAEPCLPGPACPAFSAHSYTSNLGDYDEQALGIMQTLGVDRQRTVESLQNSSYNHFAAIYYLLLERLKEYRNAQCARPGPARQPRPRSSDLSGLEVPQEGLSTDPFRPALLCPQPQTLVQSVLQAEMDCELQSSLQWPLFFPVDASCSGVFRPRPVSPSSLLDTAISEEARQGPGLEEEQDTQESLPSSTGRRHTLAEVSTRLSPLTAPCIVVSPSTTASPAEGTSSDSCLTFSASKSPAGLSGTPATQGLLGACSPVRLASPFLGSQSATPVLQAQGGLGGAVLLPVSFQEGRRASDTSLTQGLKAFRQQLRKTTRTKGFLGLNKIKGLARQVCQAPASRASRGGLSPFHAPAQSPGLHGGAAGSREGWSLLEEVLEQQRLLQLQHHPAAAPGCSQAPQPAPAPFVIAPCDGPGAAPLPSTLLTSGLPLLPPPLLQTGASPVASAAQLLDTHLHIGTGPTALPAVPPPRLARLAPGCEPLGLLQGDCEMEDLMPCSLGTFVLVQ

[3] = biological target: T1, Mitogen-activated protein kinase kinase kinase 13 (Homo sapiens) (UniProt O43283); assay: Selectivity interaction (KinomeScan (DiscoverX)) EUB0000045b MAP3K13
T1 sequence (whole entry): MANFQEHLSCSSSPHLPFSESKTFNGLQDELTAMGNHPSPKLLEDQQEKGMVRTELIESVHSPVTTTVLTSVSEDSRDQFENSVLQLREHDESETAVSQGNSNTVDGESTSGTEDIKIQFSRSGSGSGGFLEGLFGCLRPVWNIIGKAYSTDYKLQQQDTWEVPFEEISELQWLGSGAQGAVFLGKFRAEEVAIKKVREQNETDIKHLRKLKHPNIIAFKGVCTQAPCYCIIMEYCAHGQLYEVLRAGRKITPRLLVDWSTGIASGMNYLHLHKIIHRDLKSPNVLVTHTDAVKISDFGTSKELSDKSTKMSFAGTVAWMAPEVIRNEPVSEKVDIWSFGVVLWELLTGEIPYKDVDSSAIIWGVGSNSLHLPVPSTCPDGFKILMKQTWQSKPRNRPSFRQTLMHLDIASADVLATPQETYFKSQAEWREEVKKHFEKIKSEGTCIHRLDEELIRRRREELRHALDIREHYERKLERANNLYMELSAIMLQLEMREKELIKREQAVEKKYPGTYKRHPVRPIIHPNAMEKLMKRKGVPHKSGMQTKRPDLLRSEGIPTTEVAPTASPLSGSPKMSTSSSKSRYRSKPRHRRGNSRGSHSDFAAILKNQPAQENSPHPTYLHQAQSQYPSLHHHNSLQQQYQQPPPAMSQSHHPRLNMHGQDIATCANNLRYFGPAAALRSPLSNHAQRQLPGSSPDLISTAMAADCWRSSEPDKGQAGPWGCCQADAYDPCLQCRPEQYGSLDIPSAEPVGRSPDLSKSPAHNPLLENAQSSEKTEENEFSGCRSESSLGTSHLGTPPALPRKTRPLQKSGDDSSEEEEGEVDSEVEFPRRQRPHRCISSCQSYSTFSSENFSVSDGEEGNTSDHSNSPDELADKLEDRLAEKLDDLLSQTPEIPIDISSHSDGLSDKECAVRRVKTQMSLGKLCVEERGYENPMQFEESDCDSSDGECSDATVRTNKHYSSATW

[4] = biological target: Tyrosine-protein kinase Lyn (Homo sapiens, UniProt P07948); assay: Selectivity interaction (KinomeScan (DiscoverX)) EUB0000695a LYN; settings: at 100 nM
Sequence of Tyrosine-protein kinase Lyn (P07948 2-512 limits assumed): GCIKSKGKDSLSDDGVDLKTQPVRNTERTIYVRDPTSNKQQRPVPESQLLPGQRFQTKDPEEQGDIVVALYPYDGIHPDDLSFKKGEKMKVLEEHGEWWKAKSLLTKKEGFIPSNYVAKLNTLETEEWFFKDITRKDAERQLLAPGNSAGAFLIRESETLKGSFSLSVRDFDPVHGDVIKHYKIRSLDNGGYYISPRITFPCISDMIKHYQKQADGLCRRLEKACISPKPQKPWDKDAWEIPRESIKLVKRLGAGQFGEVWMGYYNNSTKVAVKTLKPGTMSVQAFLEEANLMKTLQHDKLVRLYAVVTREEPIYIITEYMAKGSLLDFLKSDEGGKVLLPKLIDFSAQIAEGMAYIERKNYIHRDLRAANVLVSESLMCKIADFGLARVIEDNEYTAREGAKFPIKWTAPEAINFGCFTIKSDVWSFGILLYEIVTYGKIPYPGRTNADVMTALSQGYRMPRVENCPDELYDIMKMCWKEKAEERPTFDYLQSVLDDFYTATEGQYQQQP

[5] = biological target: Histone-lysine N-methyltransferase, H3 lysine-36 specific (Homo sapiens) (UniProt Q96L73); assay: Selectivity interaction (Methyltransferase screen (radiometric assays, panel of 8 PRMTs, 21 protein lysine methyltransferases, 3 DNA methyltransferases, and one RNA methyltransferase)) EUB0000272b NSD1; settings: at 1 µM
[6] = biological target: Cyclin-dependent kinase 4/cyclin D1 (Homo sapiens) (UniProt P11802+P24385); settings: at 10 µM
[7] = biological target: T2, Ribosomal protein S6 kinase alpha-3 (Homo sapiens, UniProt P51812); assay: Selectivity interaction (Kinase screening (Nanosyn)) EUB0000604a RPS6KA3
T2 sequence (P51812 whole entry): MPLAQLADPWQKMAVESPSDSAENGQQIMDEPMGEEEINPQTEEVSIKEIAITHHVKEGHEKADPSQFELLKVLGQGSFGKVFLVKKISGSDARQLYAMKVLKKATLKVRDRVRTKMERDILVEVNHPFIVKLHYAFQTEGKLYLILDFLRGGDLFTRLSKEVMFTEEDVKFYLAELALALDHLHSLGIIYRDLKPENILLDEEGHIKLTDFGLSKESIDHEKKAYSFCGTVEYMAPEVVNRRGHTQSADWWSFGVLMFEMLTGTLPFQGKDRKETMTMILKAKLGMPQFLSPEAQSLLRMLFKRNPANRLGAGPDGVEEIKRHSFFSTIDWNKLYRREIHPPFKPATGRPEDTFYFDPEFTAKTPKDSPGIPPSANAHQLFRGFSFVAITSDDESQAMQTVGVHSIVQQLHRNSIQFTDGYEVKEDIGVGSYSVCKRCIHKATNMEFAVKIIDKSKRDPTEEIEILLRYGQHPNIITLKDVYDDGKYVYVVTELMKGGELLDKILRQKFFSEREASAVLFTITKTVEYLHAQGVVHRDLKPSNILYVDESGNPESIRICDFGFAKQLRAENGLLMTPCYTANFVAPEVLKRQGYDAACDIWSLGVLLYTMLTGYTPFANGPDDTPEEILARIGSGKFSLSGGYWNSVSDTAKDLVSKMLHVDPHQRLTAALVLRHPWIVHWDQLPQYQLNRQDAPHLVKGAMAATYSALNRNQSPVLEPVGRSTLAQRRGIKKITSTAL

[8] = biological target: STE20/SPS1-related proline-alanine-rich protein kinase (Homo sapiens) (UniProt Q9UEW8); assay: Selectivity interaction (ProQinase) EUB0000171b STK39
[9] = biological target: Proto-oncogene tyrosine-protein kinase Src (Homo sapiens, UniProt P12931); assay: Selectivity interaction (KinomeScan (DiscoverX)) EUB0000618a SRC; settings: at 10 µM
Sequence of Proto-oncogene tyrosine-protein kinase Src (P12931 2-536 limits assumed): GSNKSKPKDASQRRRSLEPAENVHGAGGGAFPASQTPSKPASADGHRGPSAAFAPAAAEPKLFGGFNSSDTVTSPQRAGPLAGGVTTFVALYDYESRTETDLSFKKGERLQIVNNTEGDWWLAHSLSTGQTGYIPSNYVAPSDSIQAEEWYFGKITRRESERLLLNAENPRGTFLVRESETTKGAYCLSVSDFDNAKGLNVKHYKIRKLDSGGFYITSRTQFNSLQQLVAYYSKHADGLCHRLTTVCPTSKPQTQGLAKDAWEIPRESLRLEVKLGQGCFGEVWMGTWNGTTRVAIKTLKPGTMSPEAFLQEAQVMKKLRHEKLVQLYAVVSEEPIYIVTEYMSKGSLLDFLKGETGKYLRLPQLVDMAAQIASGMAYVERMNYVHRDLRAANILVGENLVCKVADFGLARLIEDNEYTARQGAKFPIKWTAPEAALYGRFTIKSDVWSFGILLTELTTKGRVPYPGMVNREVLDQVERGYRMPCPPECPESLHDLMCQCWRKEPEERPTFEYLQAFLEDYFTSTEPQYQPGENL

[10] = biological target: T2, Ribosomal protein S6 kinase alpha-3; assay: Selectivity interaction (ActivX KiNativ screen (kinase selectivity in THP-1 cell lysates)) EUB0000639a RPS6KA3; assay type: subcellular; settings: lysate, at 0.04 µM
[11] = biological target: Cyclin-dependent kinase 17 (Homo sapiens) (UniProt Q00537); assay: Selectivity interaction (ActivX KiNativ screen (kinase selectivity in THP-1 cell lysates)) EUB0000639a CDK17; assay type: subcellular; settings: lysate
Sequence of Cyclin-dependent kinase 17 (Homo sapiens) (Q00537 whole entry, looked up): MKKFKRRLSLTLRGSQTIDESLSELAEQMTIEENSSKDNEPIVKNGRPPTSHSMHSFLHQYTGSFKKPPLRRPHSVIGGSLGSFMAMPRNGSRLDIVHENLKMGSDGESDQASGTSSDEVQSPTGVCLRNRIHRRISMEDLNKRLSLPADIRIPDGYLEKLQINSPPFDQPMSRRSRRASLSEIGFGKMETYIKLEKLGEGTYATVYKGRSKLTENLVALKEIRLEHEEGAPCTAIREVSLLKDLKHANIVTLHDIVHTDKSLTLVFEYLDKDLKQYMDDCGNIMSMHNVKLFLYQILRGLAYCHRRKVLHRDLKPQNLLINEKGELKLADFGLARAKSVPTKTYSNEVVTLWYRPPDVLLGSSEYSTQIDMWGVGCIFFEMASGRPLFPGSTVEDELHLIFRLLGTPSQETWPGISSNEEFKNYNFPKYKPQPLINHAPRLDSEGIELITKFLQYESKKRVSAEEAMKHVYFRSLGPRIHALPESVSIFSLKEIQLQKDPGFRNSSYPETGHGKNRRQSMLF

Sequence of Mitogen-activated protein kinase kinase kinase kinase 4 (O95819 2-1239 limits assumed): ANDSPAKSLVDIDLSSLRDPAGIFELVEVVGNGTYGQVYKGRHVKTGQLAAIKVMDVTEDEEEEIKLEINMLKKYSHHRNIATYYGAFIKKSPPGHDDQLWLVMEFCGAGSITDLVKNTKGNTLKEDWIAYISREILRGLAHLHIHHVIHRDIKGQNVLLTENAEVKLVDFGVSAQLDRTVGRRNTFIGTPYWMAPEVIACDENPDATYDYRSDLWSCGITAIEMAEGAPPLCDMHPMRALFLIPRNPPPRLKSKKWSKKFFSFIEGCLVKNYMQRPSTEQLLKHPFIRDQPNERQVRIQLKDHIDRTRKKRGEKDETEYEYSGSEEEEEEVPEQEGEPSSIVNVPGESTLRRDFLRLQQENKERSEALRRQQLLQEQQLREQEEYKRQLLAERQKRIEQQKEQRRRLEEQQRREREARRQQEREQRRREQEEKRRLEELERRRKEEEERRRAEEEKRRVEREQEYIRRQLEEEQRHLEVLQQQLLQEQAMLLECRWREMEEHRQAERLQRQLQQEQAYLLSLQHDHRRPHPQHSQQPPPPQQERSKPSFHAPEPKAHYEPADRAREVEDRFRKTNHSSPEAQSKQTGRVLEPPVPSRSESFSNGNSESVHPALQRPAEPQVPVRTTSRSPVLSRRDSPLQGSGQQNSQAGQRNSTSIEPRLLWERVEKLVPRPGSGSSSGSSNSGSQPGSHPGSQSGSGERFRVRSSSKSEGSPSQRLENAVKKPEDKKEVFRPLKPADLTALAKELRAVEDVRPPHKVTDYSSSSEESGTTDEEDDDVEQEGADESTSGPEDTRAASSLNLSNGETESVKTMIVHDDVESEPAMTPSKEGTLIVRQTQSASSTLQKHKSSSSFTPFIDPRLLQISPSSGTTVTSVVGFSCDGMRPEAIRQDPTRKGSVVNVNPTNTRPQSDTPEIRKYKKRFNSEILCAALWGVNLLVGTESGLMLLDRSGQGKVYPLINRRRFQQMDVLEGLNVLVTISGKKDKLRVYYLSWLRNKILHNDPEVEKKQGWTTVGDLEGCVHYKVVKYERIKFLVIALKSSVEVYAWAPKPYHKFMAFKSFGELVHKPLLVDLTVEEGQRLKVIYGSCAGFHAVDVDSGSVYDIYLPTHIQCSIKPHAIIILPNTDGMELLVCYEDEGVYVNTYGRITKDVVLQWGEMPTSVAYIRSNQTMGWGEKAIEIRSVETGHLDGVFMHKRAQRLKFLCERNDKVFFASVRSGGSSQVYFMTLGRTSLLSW

Question: Which % binding [1] does the source give for `COc1cc(N(C)c2ccnc3ccc(C(F)(F)F)cc23)cc(OC)c1OC` here?
Answer: 86%

Question: For `COCC(=O)NC/C=C/c1ccc2ncnc(Nc3ccc(Oc4ccc(C)nc4)c(C)c3)c2c1` [CP-724714], which % of control [2] is on record?
Answer: 100%

Question: `C=CC(=O)Nc1cc(-n2c(=O)ccc3cnc4ccc(-c5ccc(NS(C)(=O)=O)cc5)cc4c32)ccc1C` was tested. Which % of control ([3]; at 1 µM) did it give?
Answer: 100%

Question: What about the % of control ([3]; at 10 µM) of the same compound?
Answer: 100%

Question: With `Cc1cc(F)c(C(=O)Nc2cccc(-c3nncn3C(C)C)n2)cc1-n1cnc(C2CC2)c1` as the compound, how does the % of control [4] read?
Answer: 100%

Question: Which % of activity [5] does the source give for `Cc1cc(C)cc([C@H]2c3cc(C)ccc3NC(=O)CN2C(=O)c2ccc(Br)s2)c1` here?
Answer: 97.7%

Question: With `Cc1cc([C@@H](C)Nc2ccccc2C(=O)O)c2nc(N3CCOCC3)cc(=O)n2c1` [AZD-6482] as the compound, how does the % of control [6] read?
Answer: 100%

Question: How did the % of inhibition [7] turn out when `Cc1cnc(Nc2ccc(F)cc2Cl)nc1-c1c[nH]c(C(=O)N[C@H](CO)c2cccc(Cl)c2)c1` was run?
Answer: 6%

Question: Which results are given for `C=CC(=O)Nc1cccc(C(=O)Nc2ccc(Nc3cc(-c4[nH]c(SC)nc4C)ccn3)cc2)c1`?
Answer: % of control ([8]; at 1 µM): 100%; % of control ([8]; at 5 µM): 73%

Question: Which % of control [9] does the source give for `O[C@H]1CC[C@H](Nc2ncc3nc(Nc4c(F)cc(F)cc4F)n([C@H]4CCOC4)c3n2)CC1` here?
Answer: 72%

Question: Which % of inhibition [10] does the source give for `CC[C@@H]1[C@H](F)C(=O)N[C@@H]1COc1nccc2cc(C(N)=O)c(OC)cc12` [ZIMLOVISERTIB] here?
Answer: 14.5%

Question: And the % of inhibition ([11]; at 0.01 µM)?
Answer: -4.8%

Question: What about the % of inhibition ([11]; at 0.04 µM) of the same compound?
Answer: -2.9%

Question: What about the % of inhibition ([11]; at 0.2 µM) of the same compound?
Answer: 2.8%

Question: And the % of inhibition ([11]; at 1 µM)?
Answer: 6%

Question: And the % of inhibition ([11]; at 5 µM)?
Answer: 5.6%
